Experimental data published in patent US20090253157A1, “METHOD OF DIRECTED DIFFERENTIATION OF PORCINE EMBRYONIC STEM CELLS AND USING THE SAID CELLS IN DRUG SCREENING” (Livestock Research Institute, Council of Agriculture, …, priority 2008, published 2009).
Where “and” joins values, the source holds several entries; their conditions need not be identical. Identical values can stand only once. Marks after values point to notes of the source that are not given here.

System: pES cells of the M215-3 strain
Assay: Directed neural differentiation of pES cells (two-stage induction), immunocytochemical staining for neural biomarkers
Type: cell-based, porcine
Method: The pES cells of the M215-3 strain derived from the pre-implantation blastocysts of Taiwan Livestock Research Institute Black Pig No. 1 (a topcrossing breed established from Taoyuan and Duroc pigs) were maintained in ES-cell culture medium (ESM) consisting of Dulbecco's modified eagle medium (DMEM, high glucose and no pyruvate, Invitrogen, Grand Island, N.Y., USA) supplemented with 1 mM L-glutamine (Sigma-Aldrich, St. Louis, Mo., USA), 0.1 mM β-2-mercaptoethanol (Sigma-Aldrich), […] MEM non-essential amino acids (Sigma-Aldrich), 0.03 mM adenosine (Sigma-Aldrich), 0.03 mM guanosine (Sigma-Aldrich), 0.03 mM cytidine (Sigma-Aldrich), 0.03 mM uridine (Sigma-Aldrich), 0.01 mM thymidine (Sigma-Aldrich), antibiotics (50 units/ml penicillin G and 50 μg/ml streptomycin sulfate, Invitrogen) and 16% fetal bovine serum (FBS, Invitrogen) as described previously (Chen et al., 1991, J. Chin. Soc. Anim. Sci. 20: 326-339). Briefly, the pluripotent pES cells were propagated on a feeder layer of mitomycin C (Sigma-Aldrich) inactivated STO cells (mouse embryonic fibroblasts, CRL-1503, USA) in gelatin-coated Multidish 4 Wells® (Nunc 176740, Roskilde, Denmark) in ESM at 39° C. with an atmosphere of 5% CO2 in air. For the maintenance of undifferentiation, pES colonies were regulatory subcultured with 0.25% trypsin-0.02 mM EDTA (Invitrogen) and re-plated onto fresh STO feeder layers every 5 to 7 days.
Confluent pES cells were trypsinized and subjected to a two-stage in vitro induction protocol for neural differentiation. They were firstly taken into a suspension culture in an Easy Flask® (NUNC 169900, Roskilde, Denmark) for a 12-day period of neural induction. Neural induction is initiated by plating undifferentiated pES cells as single-cell suspension at a number of 1×10^5 cells totally in ESM medium withdrawing FBS and containing 1 μM retinoic acid (RA, Sigma-Aldrich), 200 ng/ml sonic hedgehog (SHH, R&D systems, Minneapolis, Minn., USA) and 100 ng/ml fibroblast growth factor (FGF, Sigma-Aldrich) as described by Barberi et al. (Nat. Biotechnol. 2003. 21: 1200-1207). Five combined treatments of neurogenic stimulators for neural induction were applied: (1) RA, (2) RA+SHH, (3) RA+FGF, (4) SHH+FGF, (5) RA+SHH+FGF. After 12 days of induction, the pES cell-derived neural cells were plated onto gelatin-coated 4-well dishes in high-density (2×10^4 cells/ml) or low-density (5×10^3 cells/ml). These cells were then cultured in DMEM/F12 medium (Sigma-Aldrich) supplemented with 10% FBS, 20 ng/ml human recombinant epidermal growth factor (hrEGF, Invitrogen), 20 ng/ml human recombinant basic fibroblast growth factor (hrbFGF, Invitrogen), and 1:100 N2 (Invitrogen), and allowed for the propagation of neural precursor cells (Pan et al., 2005 Biochem. Biophys. Res. Commun. 327: 548-556). After plating onto the 4-well dish, the induced pES cells were treated with trypsin/EDTA and collected at days 2, 4, 6, 8, 10, and 12, respectively, to analyze the neural-related development by immunocytochemical staining.
Cells for immunocytochemical analysis were fixed in 10% formalin at room temperature for 30 minutes. The cells were washed with phosphate buffered saline (PBS, Sigma-Aldrich), then incubated with 0.3% Triton X-100 (Sigma-Aldrich) for 10 minutes, 3% H2O2 (Sigma-Aldrich) for 5 minutes and incubated in blocking buffer (5% FBS) at room temperature for 2 hours. After being washed with PBS, the cells were incubated overnight with appropriate dilution of primary antibody, or combination of antibodies at 4° C. (Li et al., 2005 Nat. Biotechnol. 2005. 23: 215-221). Subsequently, cells were incubated with secondary antibody of Fluorescein (FITC)-conjugated AffiniPure Goat Anti-Rabbit IgG, Goat Anti-Mouse IgG, IgM (1:200, Jackson Immunoresearch Laboratories, West Baltimore Pike, Pa., USA) for a minimum of 2 hours, followed by washing in PBS. […]

[1] = day 6 after the treatments, mean±S.D.

CC1=C(/C=C/C(C)=C/C=C/C(C)=C/C(=O)O)C(C)(C)CCC1 [RA, retinoic acid]
percentage of pES cell-derived neural lineages expressing nestin (D2 after replating, 12-day induction, 1 μM RA, 200 ng/ml SHH, 100 ng/ml FGF, mean±S.D.): 86.2 ± 7.9^ab %
percentage of pES cell-derived neural lineages expressing A2B5 (D2 after replating, mean±S.D.): 83.7 ± 12.6%
percentage of pES cell-derived neural lineages expressing ChAT (D2 after replating, mean±S.D.): 87.1 ± 5.6^ab %
percentage of pES cell-derived neural lineages expressing GFAP (D2 after replating, mean±S.D.): 9.8 ± 3.8%
percentage of pES cell-derived neural lineages expressing NFL (D2 after replating, mean±S.D.): 93.9 ± 3.9^a %
percentage of pES cell-derived neural lineages expressing TH (D2 after replating, mean±S.D.): 7.8 ± 2.5%
percentage of pES cell-derived neural lineages expressing A2B5 (D4 after replating, mean±S.D.): 86.6 ± 3.3%
percentage of pES cell-derived neural lineages expressing ChAT (D4 after replating, mean±S.D.): 85.8 ± 3.2^bc %
percentage of pES cell-derived neural lineages expressing GFAP (D4 after replating, mean±S.D.): 7.6 ± 4.2%
percentage of pES cell-derived neural lineages expressing NFL (D4 after replating, mean±S.D.): 90.3 ± 4.8^ab %
percentage of pES cell-derived neural lineages expressing TH (D4 after replating, mean±S.D.): 8.0 ± 4.9%
percentage of pES cell-derived neural lineages expressing nestin (D4 after replating, mean±S.D.): 90.5 ± 4.7^a %
percentage of pES cell-derived neural lineages expressing A2B5 (D6 after replating, mean±S.D.): 87.6 ± 7.4% and 87.6 ± 7.4^a %
percentage of pES cell-derived neural lineages expressing ChAT (D6 after replating, mean±S.D.): 91.8 ± 8.3^a %
percentage of pES cell-derived neural lineages expressing GFAP (D6 after replating, mean±S.D.): 7.7±3.6% and 7.7 ± 3.6^d %
percentage of pES cell-derived neural lineages expressing NFL (D6 after replating, mean±S.D.): 91.8 ± 6.0^a %
percentage of pES cell-derived neural lineages expressing TH (D6 after replating, mean±S.D.): 8.7±1.7% and 8.7 ± 1.7^b %
percentage of pES cell-derived neural lineages expressing A2B5 (D8 after replating, mean±S.D.): 86.9 ± 9.3%
percentage of pES cell-derived neural lineages expressing ChAT (D8 after replating, mean±S.D.): 86.9 ± 4.4^ab %
percentage of pES cell-derived neural lineages expressing GFAP (D8 after replating, mean±S.D.): 7.3 ± 1.5%
percentage of pES cell-derived neural lineages expressing NFL (D8 after replating, mean±S.D.): 85.8 ± 4.2^b %
percentage of pES cell-derived neural lineages expressing TH (D8 after replating, mean±S.D.): 8.5 ± 2.7%
percentage of pES cell-derived neural lineages expressing nestin (D8 after replating, mean±S.D.): 81.2 ± 8.0^bc %
percentage of pES cell-derived neural lineages expressing A2B5 (D10 after replating, mean±S.D.): 86.3 ± 1.9%
percentage of pES cell-derived neural lineages expressing ChAT (D10 after replating, mean±S.D.): 89.9 ± 7.2^ab %
percentage of pES cell-derived neural lineages expressing GFAP (D10 after replating, mean±S.D.): 7.7 ± 4.5%
percentage of pES cell-derived neural lineages expressing NFL (D10 after replating, mean±S.D.): 84.4 ± 7.7^b %
percentage of pES cell-derived neural lineages expressing TH (D10 after replating, mean±S.D.): 8.5 ± 4.2%
percentage of pES cell-derived neural lineages expressing nestin (D10 after replating, mean±S.D.): 82.4 ± 11.4^bc %
percentage of pES cell-derived neural lineages expressing A2B5 (D12 after replating, mean±S.D.): 84.8 ± 5.2%
percentage of pES cell-derived neural lineages expressing ChAT (D12 after replating, mean±S.D.): 80.3 ± 6.0^c %
percentage of pES cell-derived neural lineages expressing GFAP (D12 after replating, mean±S.D.): 7.6 ± 2.3%
percentage of pES cell-derived neural lineages expressing NFL (D12 after replating, mean±S.D.): 74.4 ± 12.3^c %
percentage of pES cell-derived neural lineages expressing TH (D12 after replating, mean±S.D.): 8.4 ± 3.5%
percentage of pES cell-derived neural lineages expressing nestin (D12 after replating, mean±S.D.): 77.9 ± 6.6^c %
percentage of pES cell-derived neural lineages expressing CNPase [1]: 89.8 ± 4.7^ab %
percentage of pES cell-derived neural lineages expressing GABA [1]: 80.5±9.2% and 80.5 ± 9.2^a %
percentage of pES cell-derived neural lineages expressing MAP2 [1]: 86.1 ± 3.2^a %
percentage of pES cell-derived neural lineages expressing O4 [1]: 90.7 ± 5.9%
percentage of pES cell-derived neural lineages expressing S100 [1]: 71.4 ± 12.5^a %
percentage of differentiated cells GFAP positive (during the 12-day post-treatment period (Table 3)): Less than 10%
percentage of cells expressing TH (during the culture, day 2 to day 12 (text summary of Table 5)): below 10%
ratio of cells expressing A2B5 (during the following culture, day 2 to day 12 (text summary of Table 4)): above 80%
